Results: patent US12653802B2, “Method for treating lung cancer” (priority 2020, dated 2026)

Key:
[1] = test system: H1650 cells; experiment: Growth inhibition of EGFR gene mutant NSCLC cells, cell survival stained with crystal violet, IC50 (FIG. 1A); type: cell-based; conditions: treated for 3 days, versus parent compound curcumin
Description: The EGFR gene mutant NSCLC cells were treated with the diarylheptanoid compounds of the present disclosure, and then the cell survival was stained with crystal violet to measure the IC50 values of the diarylheptanoid compounds of the present disclosure in the EGFR gene mutant NSCLC cells, so as to determine the growth inhibitory effect of the diarylheptanoid compounds of the present disclosure on the EGFR gene mutant NSCLC cells.
EGFR gene mutations in lung cancer are mostly found in exons 18-21, which are the intracellular tyrosine kinase coding region. The most common mutations include E746-A750del in exon 19 and L858R point mutation in exon 21, which account for about 85%-90% of EGFR gene mutations. Tumor cells with these two mutations are sensitive to the EGFR-TKIs, known as activating mutations. Secondary mutations may occur in some tumor cells, and the most common secondary mutation is the T790M mutation in exon 20, which is a drug resistance mutation. […] The H1650 cells have the E746-A750del mutation in exon 19 of the EGFR gene, wherein the CCM represents curcumin and the BDMC represents bisdemethoxycurcumin.

[2] = test system: H1975 cells; experiment: Cell survival assay in EGFR-TKIs resistant NSCLC cells, IC50 (FIG. 1B); type: cell-based; conditions: treated for 3 days, versus curcumin
Description: (§1) Experimentally, another 7 EGFR-TKIs resistant NSCLC cells were treated with Compound 21a, Compound 35a, Compound 35d, Compound 36 or Compound 37, and then the cell survival assay was performed to measure the IC50 values of the diarylheptanoid compounds of the present disclosure in the EGFR-TKIs resistant NSCLC cells, so as to determine the growth inhibitory effect of the diarylheptanoid compounds of the present disclosure on the EGFR-TKIs resistant NSCLC cells.
(§2) Please refer to FIG. 1B, FIG. 1C and FIG. 1D.

[3] = test system: GR2 cells; experiment: Cell survival assay in gefitinib-resistant NSCLC cells, IC50 (FIG. 1C); type: cell-based; conditions: treated for 3 days, versus curcumin
Description: as §1, §2

[4] = test system: GR10 cells; experiment: as above; type: cell-based; conditions: treated for 3 days, versus curcumin
Description: as §1, §2

[5] = test system: GR5 cells; experiment: as above; type: cell-based; conditions: treated for 3 days, versus curcumin
Description: as §1, §2

[6] = test system: GR6 cells; experiment: as above; type: cell-based; conditions: treated for 3 days, versus curcumin
Description: as §1, §2

[7] = test system: GR8 cells; experiment: as above; type: cell-based; conditions: treated for 3 days, versus curcumin
Description: as §1, §2

[8] = test system: GR9 cells; experiment: as above; type: cell-based; conditions: treated for 3 days, versus curcumin
Description: as §1, §2

[9] = Body weight changes in GR6 tumor mice, single and combined treatment (FIG. 3B); type: in vivo; conditions: Compound 35d 100 mg/kg per day alone or with osimertinib 1 mg/kg per day
Description: (§3) EGFR-TKIs are currently the standard treatment for NSCLC patients with the EGFR gene mutation. To further test whether the combined use of the diarylheptanoid compound of the present disclosure and known drug can enhance the therapeutic effect of NSCLC, the GR6 tumor mice were divided into 4 groups. One group received 100 mg/kg Compound 35d treatment per day (represented as 35d), another group received 1 mg/kg osimertinib treatment per day (represented as Osi), still another group received the combined treatment of 100 mg/kg Compound 35d and 1 mg/kg osimertinib per day (represented as 35d+Osi), and the other group was the control group without drug treatment.

[10] = Body weight changes in the tumor mice treated with Compound 35d alone (FIG. 2D); type: in vivo; conditions: 100 mg/kg daily, treated for more than 1 month
Description: In order to verify the anticancer effect of the diarylheptanoid compound of the present disclosure in vivo, the GR6 tumor mouse model, the GR8 tumor mouse model and the HCC827 tumor mouse model of xenotransplantation were first established, and the GR6 tumor mice, the GR8 tumor mice, and the HCC827 tumor mice were treated with 100 mg/kg of Compound 35d daily for 35 days, and the tumor size and body weight of the GR6 tumor mice, the GR8 tumor mice, and the HCC827 tumor mice were recorded.

[11] = test system: GR6 tumor; experiment: Tumor re-progression in GR6 tumor mice, single and combined treatment with osimertinib (FIG. 3A); type: in vivo; conditions: Compound 35d 100 mg/kg per day, osimertinib 1 mg/kg per day, alone or combined
Description: as §3

SMILES: COc1cc(/C=C/C(=O)C(C)(C)C(=O)/C=C/c2ccc(OC(=O)C(C)(CO)CO)c(OC)c2)ccc1OC(=O)C(C)(CO)CO [Compound 35a, ((1E,6E)-4,4-dimethyl-3,5-dioxohepta-1,6-diene-1,7-diyl)bis(2-methoxy-4,1-phenylene)bis(3-hydroxy-2-hydroxymethyl)-2-methylpropanoate]
- inhibitory activity on the growth of the H1650 cells (IC50) compared with curcumin [1]: significantly better inhibitory activity than the parent compound—curcumin
- inhibitory activity on the growth of the H1975 cells (IC50) compared with curcumin [2]: significantly better inhibitory activity than curcumin
- inhibitory activity on the growth of the GR2 cells (IC50) compared with curcumin [3]: significantly better inhibitory activity than curcumin
- inhibitory activity on the growth of the GR10 cells (IC50) compared with curcumin [4]: significantly better inhibitory activity than curcumin
- inhibitory activity on the growth of the GR5 cells (IC50) compared with curcumin [5]: significantly better inhibitory activity than curcumin
- inhibitory activity on the growth of the GR6 cells (IC50) compared with curcumin [6]: significantly better inhibitory activity than curcumin
- inhibitory activity on the growth of the GR8 cells (IC50) compared with curcumin [7]: significantly better inhibitory activity than curcumin
- inhibitory activity on the growth of the GR9 cells (IC50) compared with curcumin [8]: significantly better inhibitory activity than curcumin

SMILES: C#CCC(CC#C)(C(=O)/C=C/c1ccc(OC(=O)C(C)(CO)CO)c(OC)c1)C(=O)/C=C/c1ccc(OC(=O)C(C)(CO)CO)c(OC)c1 [Compound 35d, ((1E,6E)-3,5-dioxo-4,4-di(prop-2-yn-1-yl)hepta-1,6-diene-1,7-diyl)bis(2-methoxy-4,1-phenylene)bis(3-hydroxy-2-(hydroxymethyl)-2-methylpropanoate)]
- body weight of the GR6 tumor mice [9]: neither the single treatment of Compound 35d nor the combined treatment of Compound 35d and osimertinib can significantly reduce the body weight
- body weight of the tumor mice [10]: did not decrease significantly

SMILES: COc1cc(/C=C/C(=O)/C=C(O)/C=C/c2ccc(OC(=O)C(C)(CO)CO)c(OC)c2)ccc1OC(=O)C(C)(CO)CO [Compound 21a, ((1E,3Z,6E)-3-hydroxy-5-oxohepta-1,3,6-triene-1,7-diyl)bis(2-methoxy-4,1-phenylene)bis(3-hydroxy-2-hydroxymethyl)-2-methylpropanoate]
- inhibitory activity on the growth of the H1650 cells (IC50) compared with curcumin [1]: significantly better inhibitory activity than the parent compound—curcumin
- inhibitory activity on the growth of the H1975 cells (IC50) compared with curcumin [2]: significantly better inhibitory activity than curcumin
- inhibitory activity on the growth of the GR2 cells (IC50) compared with curcumin [3]: significantly better inhibitory activity than curcumin
- inhibitory activity on the growth of the GR10 cells (IC50) compared with curcumin [4]: significantly better inhibitory activity than curcumin
- inhibitory activity on the growth of the GR5 cells (IC50) compared with curcumin [5]: significantly better inhibitory activity than curcumin
- inhibitory activity on the growth of the GR6 cells (IC50) compared with curcumin [6]: significantly better inhibitory activity than curcumin
- inhibitory activity on the growth of the GR8 cells (IC50) compared with curcumin [7]: significantly better inhibitory activity than curcumin
- inhibitory activity on the growth of the GR9 cells (IC50) compared with curcumin [8]: significantly better inhibitory activity than curcumin

SMILES: C=CC(=O)Nc1cc(Nc2nccc(-c3cn(C)c4ccccc34)n2)c(OC)cc1N(C)CCN(C)C [osimertinib]
- tumor size / tumor re-progression in the GR6 tumor mice [11]: initially reduced by osimertinib treatment, the treated tumors subsequently re-growth
